# Laboratory results reported in PMC8566089 (Bioorganic Chemistry, 2021).
# Legend:
# [1] = test system: A431 (squamous skin) cancer cell line; experiment: MTT antiproliferative assay, A431; assay type: cell-based; settings: for IC50: Homo sapiens, A-431, 72 h, read-out: IC50 ± SE, A431; for SI (selectivity index), A431: IC50 of RPE1 relative to that of A431
# [2] = test system: MCF7 (breast) cancer cell line; experiment: MTT antiproliferative assay, MCF7; assay type: cell-based; settings: for IC50: Homo sapiens, MCF7, 72 h, read-out: IC50 ± SE, MCF7; for SI (selectivity index), MCF7: IC50 of RPE1 relative to that of MCF7
# [3] = test system: HCT116 (colon) cancer cell line; experiment: MTT antiproliferative assay, HCT116; assay type: cell-based; settings: for IC50: Homo sapiens, HCT-116, 72 h, read-out: IC50 ± SE, HCT116; for SI (selectivity index), HCT116: IC50 of RPE1 relative to that of HCT116
# [4] = test system: RPE1 (normal human immortalized retinal pigment epithelial cell line); experiment: MTT assay against normal RPE1 cells; assay type: cell-based; settings: RPE-1, read-out: IC50 ± SE, RPE1
# VEGFR-2 [5] = biological target: T1, VEGFR-2 (Homo sapiens, UniProt P35968); experiment: VEGFR-2 Western blot in MCF7; assay type: cell-based; settings: for VEGFR2 MCF7 % Inhibition: Western blot at MTT-IC50; for VEGFR2 MCF7 RQ (relative quantification): Western blot at MTT-IC50, control RQ 3.725
# T1 sequence (P35968 20-1356): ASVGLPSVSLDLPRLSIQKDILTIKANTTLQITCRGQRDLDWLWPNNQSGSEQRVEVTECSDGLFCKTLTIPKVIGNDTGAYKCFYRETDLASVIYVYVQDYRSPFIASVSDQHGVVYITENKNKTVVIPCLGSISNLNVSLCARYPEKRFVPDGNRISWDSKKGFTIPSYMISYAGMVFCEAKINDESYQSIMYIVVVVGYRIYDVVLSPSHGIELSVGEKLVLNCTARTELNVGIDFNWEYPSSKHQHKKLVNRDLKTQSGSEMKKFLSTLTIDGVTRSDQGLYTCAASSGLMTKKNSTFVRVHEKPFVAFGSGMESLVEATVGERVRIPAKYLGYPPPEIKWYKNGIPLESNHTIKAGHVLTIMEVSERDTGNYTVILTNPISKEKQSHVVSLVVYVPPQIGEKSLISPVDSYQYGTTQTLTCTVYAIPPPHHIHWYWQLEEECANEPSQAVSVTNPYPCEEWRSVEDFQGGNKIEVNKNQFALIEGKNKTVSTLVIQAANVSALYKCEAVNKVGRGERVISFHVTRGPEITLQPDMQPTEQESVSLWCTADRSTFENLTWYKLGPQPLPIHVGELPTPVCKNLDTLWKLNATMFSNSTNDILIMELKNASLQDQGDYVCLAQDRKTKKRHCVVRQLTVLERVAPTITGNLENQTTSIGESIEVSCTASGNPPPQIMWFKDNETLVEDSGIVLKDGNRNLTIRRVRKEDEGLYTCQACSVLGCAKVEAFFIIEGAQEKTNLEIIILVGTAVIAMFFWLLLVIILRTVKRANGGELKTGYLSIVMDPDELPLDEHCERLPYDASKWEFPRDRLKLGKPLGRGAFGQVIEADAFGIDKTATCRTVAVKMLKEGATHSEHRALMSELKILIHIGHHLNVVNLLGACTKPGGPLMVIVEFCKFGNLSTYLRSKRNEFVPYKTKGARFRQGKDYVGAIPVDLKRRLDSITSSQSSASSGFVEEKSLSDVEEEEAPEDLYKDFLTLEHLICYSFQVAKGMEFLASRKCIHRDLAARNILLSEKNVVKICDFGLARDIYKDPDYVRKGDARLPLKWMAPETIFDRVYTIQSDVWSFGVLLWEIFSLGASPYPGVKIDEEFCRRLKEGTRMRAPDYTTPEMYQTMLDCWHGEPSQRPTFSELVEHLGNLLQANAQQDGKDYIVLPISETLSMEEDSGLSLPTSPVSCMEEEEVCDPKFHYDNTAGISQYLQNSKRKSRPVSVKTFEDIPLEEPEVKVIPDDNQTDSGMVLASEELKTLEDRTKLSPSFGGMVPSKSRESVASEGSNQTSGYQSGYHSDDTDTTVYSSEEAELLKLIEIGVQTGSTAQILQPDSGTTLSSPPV
# VEGFR-2 [6] = biological target: T1, VEGFR-2; experiment: VEGFR-2 Western blot in HCT116; assay type: cell-based; settings: for VEGFR2 HCT116 % Inhibition: Western blot at MTT-IC50; for VEGFR2 HCT116 RQ (relative quantification): Western blot at MTT-IC50, control RQ 3.817
# EGFR [7] = biological target: T2, EGFR (Homo sapiens, UniProt P00533); experiment: EGFR Western blot in MCF7; assay type: cell-based; settings: for EGFR MCF7 % Inhibition: Western blot at MTT-IC50; for EGFR MCF7 RQ (relative quantification): Western blot at MTT-IC50, control RQ 4.226
# T2 sequence (P00533 25-1210): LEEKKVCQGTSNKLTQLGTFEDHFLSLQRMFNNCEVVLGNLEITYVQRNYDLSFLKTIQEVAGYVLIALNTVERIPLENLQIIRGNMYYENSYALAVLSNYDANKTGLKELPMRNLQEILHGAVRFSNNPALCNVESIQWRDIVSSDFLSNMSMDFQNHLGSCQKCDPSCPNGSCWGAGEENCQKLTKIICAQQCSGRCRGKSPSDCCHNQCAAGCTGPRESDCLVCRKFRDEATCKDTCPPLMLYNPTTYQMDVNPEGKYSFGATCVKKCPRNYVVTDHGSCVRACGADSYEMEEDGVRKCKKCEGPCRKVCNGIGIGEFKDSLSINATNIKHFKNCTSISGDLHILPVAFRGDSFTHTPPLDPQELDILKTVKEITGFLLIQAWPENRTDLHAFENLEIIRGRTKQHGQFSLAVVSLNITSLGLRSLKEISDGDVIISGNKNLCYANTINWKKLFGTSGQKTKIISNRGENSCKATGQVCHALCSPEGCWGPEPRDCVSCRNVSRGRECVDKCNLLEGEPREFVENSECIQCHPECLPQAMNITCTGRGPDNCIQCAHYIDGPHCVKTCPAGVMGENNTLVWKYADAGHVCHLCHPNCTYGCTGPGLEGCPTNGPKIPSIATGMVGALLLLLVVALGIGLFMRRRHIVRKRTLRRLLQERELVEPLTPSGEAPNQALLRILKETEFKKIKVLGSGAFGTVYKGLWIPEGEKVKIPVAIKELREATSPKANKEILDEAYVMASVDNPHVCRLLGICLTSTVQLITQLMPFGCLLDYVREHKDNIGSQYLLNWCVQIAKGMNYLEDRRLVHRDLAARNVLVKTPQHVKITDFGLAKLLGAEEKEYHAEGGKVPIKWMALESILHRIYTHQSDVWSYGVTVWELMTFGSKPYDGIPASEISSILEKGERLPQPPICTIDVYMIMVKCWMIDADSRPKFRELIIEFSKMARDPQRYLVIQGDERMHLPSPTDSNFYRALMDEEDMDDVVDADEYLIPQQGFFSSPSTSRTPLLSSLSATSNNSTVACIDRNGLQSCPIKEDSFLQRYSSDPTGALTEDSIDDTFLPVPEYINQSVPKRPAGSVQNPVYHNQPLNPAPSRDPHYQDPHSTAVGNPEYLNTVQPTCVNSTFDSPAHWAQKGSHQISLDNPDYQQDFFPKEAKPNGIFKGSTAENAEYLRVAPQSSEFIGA
# EGFR [8] = biological target: T2, EGFR; experiment: EGFR Western blot in HCT116; assay type: cell-based; settings: for EGFR HCT116 % Inhibition: Western blot at MTT-IC50; for EGFR HCT116 RQ (relative quantification): Western blot at MTT-IC50, control RQ 4.0382
# COX-1 = biological target: T3, COX-1 (Ovis aries, UniProt P05979); experiment: COX-1 inhibitor screening kit; assay type: biochemical
# T3 sequence (P05979 25-600): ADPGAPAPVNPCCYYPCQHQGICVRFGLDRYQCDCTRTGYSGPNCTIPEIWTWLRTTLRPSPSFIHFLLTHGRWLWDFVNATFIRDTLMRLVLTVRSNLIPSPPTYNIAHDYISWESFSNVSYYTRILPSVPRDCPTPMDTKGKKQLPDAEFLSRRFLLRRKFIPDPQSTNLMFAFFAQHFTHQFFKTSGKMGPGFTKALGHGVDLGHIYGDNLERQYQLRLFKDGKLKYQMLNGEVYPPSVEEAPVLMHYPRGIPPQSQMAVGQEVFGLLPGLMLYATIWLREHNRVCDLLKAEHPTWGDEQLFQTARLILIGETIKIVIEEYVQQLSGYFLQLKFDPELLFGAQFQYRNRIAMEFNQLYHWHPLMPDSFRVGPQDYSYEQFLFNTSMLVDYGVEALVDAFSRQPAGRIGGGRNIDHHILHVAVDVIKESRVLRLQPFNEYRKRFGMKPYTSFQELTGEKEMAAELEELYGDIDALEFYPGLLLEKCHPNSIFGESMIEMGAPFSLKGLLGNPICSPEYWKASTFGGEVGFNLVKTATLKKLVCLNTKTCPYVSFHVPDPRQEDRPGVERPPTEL
# COX-2 = biological target: T4, COX-2 (Homo sapiens, UniProt P35354); experiment: COX-2 inhibitor screening kit; assay type: biochemical
# T4 sequence (P35354 18-604): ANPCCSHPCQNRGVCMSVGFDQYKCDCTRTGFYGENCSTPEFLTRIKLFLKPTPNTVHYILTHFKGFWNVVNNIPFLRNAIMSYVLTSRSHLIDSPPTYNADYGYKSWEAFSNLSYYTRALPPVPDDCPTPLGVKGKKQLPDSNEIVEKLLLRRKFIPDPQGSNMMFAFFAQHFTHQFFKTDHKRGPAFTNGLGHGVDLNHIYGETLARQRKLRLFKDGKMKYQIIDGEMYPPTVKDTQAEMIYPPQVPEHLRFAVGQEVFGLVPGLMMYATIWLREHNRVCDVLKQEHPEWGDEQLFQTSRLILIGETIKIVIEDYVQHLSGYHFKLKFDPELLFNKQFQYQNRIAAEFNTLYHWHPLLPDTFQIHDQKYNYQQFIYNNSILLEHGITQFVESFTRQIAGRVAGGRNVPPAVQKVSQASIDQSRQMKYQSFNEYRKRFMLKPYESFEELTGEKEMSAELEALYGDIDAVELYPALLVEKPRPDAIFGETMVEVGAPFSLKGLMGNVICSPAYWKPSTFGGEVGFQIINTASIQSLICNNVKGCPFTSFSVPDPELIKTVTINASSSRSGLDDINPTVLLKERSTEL
# [9] = test system: SARS-CoV-2 (hCoV-19/Egypt/NRC-03/2020); settings: SARS-CoV-2 / VERO-E6
Structure (SMILES),IC50 [1] [nM],"SI (selectivity index), A431 [1]",IC50 [2] [nM],"SI (selectivity index), MCF7 [2]",IC50 [3] [nM],"SI (selectivity index), HCT116 [3]",IC50 [4] [nM],VEGFR2 MCF7 % Inhibition (VEGFR-2 [5]) [%],VEGFR2 MCF7 RQ (relative quantification) (VEGFR-2 [5]),VEGFR2 HCT116 % Inhibition (VEGFR-2 [6]) [%],VEGFR2 HCT116 RQ (relative quantification) (VEGFR-2 [6]),EGFR MCF7 % Inhibition (EGFR [7]) [%],EGFR MCF7 RQ (relative quantification) (EGFR [7]),EGFR HCT116 % Inhibition (EGFR [8]) [%],EGFR HCT116 RQ (relative quantification) (EGFR [8]),IC50 (COX-1) [nM],IC50 (COX-2) [nM],SI = IC50(COX-1)/IC50(COX-2) (COX-2),SI = CC50/IC50 [9]
"CC(=O)Oc1ccc(Cl)cc1C(=O)N1C/C(=C\c2ccccc2)C(=O)/C(=C/c2ccccc2)C1 [Compound 5j, 4-Chloro-2-[3,5-di((E)-benzylidene)-4-oxopiperidine-1-carbonyl]phenyl acetate]",2510 ± 180,3.7,4500 ± 390,2.06,2620 ± 190,3.53,9260 ± 750,49.0,1.9,79.0,0.8,65.7,1.45,68.5,1.273,142,1190,0.120,5.7
"CC(=O)Oc1ccccc1C(=O)N1C/C(=C\c2ccc(Br)cc2)C(=O)/C(=C/c2ccc(Br)cc2)C1 [Compound 5d, 2-[3,5-Bis((E)-4-bromobenzylidene)-4-oxopiperidine-1-carbonyl]phenyl acetate]",986 ± 80,9.8,4580 ± 390,2.11,3600 ± 290,2.69,9680 ± 570,48.7,1.91,60.7,1.5,64.0,1.52,65.9,1.377,134,1110,0.121,54.7
"CC(=O)Oc1ccc(Cl)cc1C(=O)N1C/C(=C\c2cccs2)C(=O)/C(=C/c2cccs2)C1 [Compound 5p, 4-Chloro-2-[(3E,5E)-4-oxo-3,5-bis(thiophen-2-ylmethylene)piperidine-1-carbonyl]phenyl acetate]",6250 ± 490,3.2,6250 ± 610,3.18,6380 ± 440,3.12,19900 ± 1210,40.7,2.209,39.6,2.304,59.0,1.731,56.3,1.763,285,138,2.065,233.6
"COc1ccc(/C=C2\CN(C(=O)c3ccccc3OC(C)=O)C/C(=C\c3ccc(OC)c(OC)c3)C2=O)cc1OC [Compound 5g, 2-[3,5-Bis((E)-3,4-dimethoxybenzylidene)-4-oxopiperidine-1-carbonyl]phenyl acetate]",973 ± 70,10.6,4970 ± 420,2.08,2390 ± 210,4.32,10300 ± 1100,37.6,2.324,37.3,2.393,61.2,1.638,61.5,1.554,262,2180,0.120,57.5
"COc1cc(/C=C2\CN(C(=O)c3ccccc3OC(C)=O)C/C(=C\c3cc(OC)c(OC)c(OC)c3)C2=O)cc(OC)c1OC [Compound 5h, 2-[4-Oxo-3,5-bis((E)-3,4,5-trimethoxybenzylidene)piperidine-1-carbonyl]phenyl acetate]",472 ± 20,18.3,3990 ± 360,2.16,1330 ± 90,6.47,8620 ± 720,45.4,2.032,37.2,2.398,58.9,1.737,57.9,1.698,147,438,0.336,35.0
"COc1ccc(/C=C2\CN(C(=O)c3cc(Cl)ccc3OC(C)=O)C/C(=C\c3ccc(OC)c(OC)c3)C2=O)cc1OC [Compound 5n, 2-[3,5-Bis((E)-3,4-dimethoxybenzylidene)-4-oxopiperidine-1-carbonyl]-4-chlorophenyl acetate]",444 ± 40,17.7,4390 ± 400,1.79,1490 ± 170,5.30,7870 ± 620,37.2,2.338,37.4,2.389,56.8,1.825,60.1,1.610,163,361,0.452,88.9
